Data set [1] in a line: Oxidative breakdown with urea.H2O2 monitored by 1H NMR. The following applies: urea.H2O2 300 mM. It is filed as physicochemical.
Assay in data set [2]: as above
Format: physicochemical. Conditions: for yield of released product (1H NMR vs internal standard) / half-life: 6-12 equiv H2O2.urea, pH 8.0, CD3CN:D2O 5:1, rt; for half-life: H2O2.urea (6-12 equiv) in CD3CN:D2O 5:1, read-out: t1/2 (substrate consumption); for oxidative breakdown / cargo release (in words): in the presence of H2O2. The protocol:
The oxidative breakdown of compounds 7 and 8 was achieved by subjecting them (˜25 mM) to urea.H2O2 (300 mM) in a mixture of CD3CN and aqueous (D2O) buffer (pH=8.0). The buffer was selected to mimic the experimentally determined pH of mitochondria in consideration of potential applications to mitigating neuronal oxidative stress. Initial experiments were conducted in a 5:1 ratio of CD3CN and buffer (Scheme 3). Reaction progress was monitored by ^1H NMR through following the disappearance of the signals for diastereotopic hydrogens from the methylene group in the starting materials and the appearance of the corresponding enantiotopic hydrogens in butanone. Conversions were calculated by comparison to the internal standard 1,2-dimethoxyethane.

Setting [3] is: ~25 mM substrate, urea.H2O2 300 mM, CD3CN:buffer 5:1, pH 8.0.

On to `CCC(C)(OCOC)B1OC(C)(C)C(C)(C)O1` (centres unmarked) [Compound 7], for which the “NMR yield of butanone” value in data set [1] (CD3CN:buffer 1:1) stood at 84%; in data set [1] (pH 7.2) it was 81%; in data set [2] (urea.H2O2 300 mM, CD3CN:buffer 5:1, pH 8.0) it was 79%. In addition, the “time for consumption of 50% of the starting material” value in data set [2] (setting [3]) is “less than 2 min”.
As to `CCC(C)(OC(=O)Oc1ccccc1)B1OC(C)(C)C(C)(C)O1` (centres unmarked) [Compound 8], the figures for the “time for consumption of 50% of the starting material” value in data set [1] (CD3CN:buffer 1:1) and in data set [2] (setting [3]) were at most 12 min and 22 min, respectively. In addition, the “yield of the desired products” value in data set [1] (CD3CN:buffer 1:1) is recorded as 84%; in data set [2] (urea.H2O2 300 mM, CD3CN:buffer 5:1) it was 84%.
As for `CCC(C)(OCOC1CCCCC1)B1OC(C)(C)C(C)(C)O1` (centres unmarked) [Compound 11], in data set [2], the “yield of released product (1H NMR vs internal standard)” value (from here on “yield … (1H NMR vs internal standard)”) is listed as 84%, the half-life is under 2 min and the “oxidative breakdown / cargo release (in words)” value was “released smoothly”.
The corresponding values for `CCC(C)(OCO[C@@H]1C[C@H](C)CC[C@H]1C(C)C)B1OC(C)(C)C(C)(C)O1` (some centres unmarked) [Compound 13] are 85%, under 2 min and “released smoothly”.
Regarding `CCOC(C)(CCc1ccc(O[Si](C)(C)C(C)(C)C)cc1)B1OC(C)(C)C(C)(C)O1` (centres unmarked) [Compound 15], in data set [2], the “yield … (1H NMR vs internal standard)” value turned out to be 89% and the half-life is under 2 min.
Turning to `CCC(C)(OCC(C)C)B1OC(C)(C)C(C)(C)O1` (centres unmarked) [Compound 17], in data set [2], the “yield … (1H NMR vs internal standard)” value is listed as 89% and the half-life was under 2 min.
As for `CC(C)C(OC1CCCCC1)B1OC(C)(C)C(C)(C)O1` (centres unmarked) [Compound 19], in data set [2], the “yield … (1H NMR vs internal standard)” value came out at 83% and the half-life is under 2 min.
Turning to `Cc1c(C)c2c(c(C)c1OC(=O)OC(C)(CCO[Si](C)(C)C(C)(C)C)B1OC(C)(C)C(C)(C)O1)CCC(C)(C)O2` (centres unmarked) [Compound 20], in data set [2], the “yield … (1H NMR vs internal standard)” value was 79%, the half-life is 90 min and the “oxidative breakdown / cargo release (in words)” value is on record as “somewhat slow”.
With `CCC(C)(OC(=O)c1ccccc1)B1OC(C)(C)C(C)(C)O1` (centres unmarked) [Compound 22], in data set [2], the “yield … (1H NMR vs internal standard)” value was 16% and the half-life is over 936 min.
With `COc1ccc([C@H]2OCC[C@](C)(B3OC(C)(C)C(C)(C)O3)O2)cc1` [Compound 28], in data set [2] (H2O2, pH 8.0), the “time for consumption of 50% of the starting material” value was at most 1.5 min; the “time to complete conversion” value is under 15 min; the “yield of anisaldehyde and 1-hydroxy-3-butanone” value is 94%.
Consider `CC1(B2OC(C)(C)C(C)(C)O2)CCOC(c2ccccc2)(c2ccccc2)O1` (centres unmarked) [Compound 29], for which the “oxidative breakdown / cargo release (in words)” value in data set [2] is “quickly and efficiently”.
